Laboratory results published in ChEMBL document CHEMBL4699521, “Design and synthesis of 4-Aminoquinoline-isoindoline-dione-isoniazid triads as potential anti-mycobacterials” (Bioorg Med Chem Lett, 2020).
pIC50: −log10 of the molar value. ≈ marks a conversion by molar mass, not a printed value.

Columns and labels:
Vero [1] = assay: Cytotoxicity against African green monkey Vero cells assessed as reduction in cell viability measured after 24 hrs by resazurin assay; assay type: cell-based; details: Chlorocebus sabaeus
[2] = system: Mycobacterium tuberculosis; assay: Antitubercular activity against Mycobacterium tuberculosis mc2 6230 assessed as minimum inhibitory concentration required to inhibit 99% of bacterial growth incubated for 7 days by two-fold serial dilution method; assay type: functional; details: mc2 6230, 168 h, time 7 day
[3] = system: Mycobacterium tuberculosis; assay: Antitubercular activity against Mycobacterium tuberculosis mc2 6230 assessed as minimum inhibitory concentration required to inhibit 99% of bacterial growth measured after 2 to 3 weeks; assay type: functional; details: time weeks 2-3
[4] = target: T1, Enoyl-[acyl-carrier-protein] reductase [NADH] (Mycobacterium tuberculosis) (UniProt P9WGR1); assay: Inhibition of Mycobacterium tuberculosis mc2 6230 InhA assessed as antimycobacterial activity by measuring minimum inhibitory concentration required to inhibit 99% of bacterial growth
T1 sequence (whole entry): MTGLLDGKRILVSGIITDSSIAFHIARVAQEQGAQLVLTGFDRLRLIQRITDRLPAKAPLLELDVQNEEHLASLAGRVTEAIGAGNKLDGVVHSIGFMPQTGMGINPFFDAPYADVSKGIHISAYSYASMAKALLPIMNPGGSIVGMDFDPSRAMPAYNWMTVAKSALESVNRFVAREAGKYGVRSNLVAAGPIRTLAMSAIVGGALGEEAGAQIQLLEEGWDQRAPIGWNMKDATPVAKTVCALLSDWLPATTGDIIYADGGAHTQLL

[5] = Selectivity index, ratio of IC50 for African green monkey Vero cells to MIC99 for Mycobacterium tuberculosis mc2 6230; assay type: toxicity; details: read-out: Selectivity Index
Vero [6] = assay: Cytotoxicity against African green monkey Vero cells; assay type: cell-based; details: Chlorocebus sabaeus
[7] = system: Mycobacterium tuberculosis; assay: Antitubercular activity against Mycobacterium tuberculosis mc2 6230 assessed as minimum inhibitory concentration required to inhibit 99% of bacterial growth; assay type: functional
[8] = system: Mycobacterium tuberculosis; assay: Antimycobacterial activity against Mycobacterium tuberculosis H37Rv assessed as reduction in bacterial cell growth; assay type: functional
[9] = system: Mycobacterium tuberculosis; assay: Antitubercular activity against Mycobacterium tuberculosis H37Rv assessed as reduction in bacterial cell growth measured after 7 days by alamar blue assay; assay type: functional; details: 168 h, time 7 day

Row | Structure (SMILES) | MIC99 [4] [µM] | selectivity ratio [5] | pIC50 (Vero [6]) | further results
1 | O=C1c2ccc(N3CCCCC3)cc2C(=O)N1CCCCNc1ccnc2cc(Cl)ccc12 | – | – | – | pIC50 (Vero [1]): < 3.66; MIC [2]: 13.5 µM (≈ 6.25 µg/mL)
2 | Cc1ccc(N2C(=O)C(NC(=O)CCNc3ccnc4cc(Cl)ccc34)[C@@H]2/C=C/c2ccccc2)cc1 (some centres not stated) | – | – | – | MIC [3]: 9.8 µM (≈ 5.01 µg/mL)
3 | O=C(NCCCNc1ccnc2cc(Cl)ccc12)c1ccc2c(c1)C(=O)N(NC(=O)c1ccncc1)C2=O | 5.8 (≈ 3.07 µg/mL) | 27 | 3.79 | –
4 | O=C(NN1C(=O)c2ccc(C(=O)OCCNc3ccnc4cc(Cl)ccc34)cc2C1=O)c1ccncc1 | > 388 | > 0.5 | < 3.71 | –
5 | O=C(NNC(=O)c1ccc2c(c1)C(=O)N(CCCCCCCCNc1ccnc3cc(Cl)ccc13)C2=O)c1ccncc1 | 5.1 (≈ 3.06 µg/mL) | 25 | 3.89 | –
6 | O=C(O)c1ccc2c(c1)C(=O)N(CCCCCCNc1ccnc3cc(Cl)ccc13)C2=O | 222 (≈ 100 µg/mL) | 0.11 | 4.61 | –
7 | O=C1c2ccccc2C(=O)N1CCCCCCCCNc1ccnc2cc(Cl)ccc12 | – | – | 4.94 | MIC [7]: 13.5 µM (≈ 5.89 µg/mL)
8 | O=C(O)c1ccc2c(c1)C(=O)N(CCCCCCCCNc1ccnc3cc(Cl)ccc13)C2=O | 417 (≈ 200 µg/mL) | > 0.5 | < 3.68 | –
9 | O=C(NN1C(=O)c2cccc3cccc(c23)C1=O)c1ccncc1 | – | – | – | MIC [7]: > 631 µM
10 | O=C1C(=O)N(CCCN2CCN(c3ccnc4cc(Cl)ccc34)CC2)c2ccc(F)cc21 | – | – | – | MIC [3]: < 10.1 µM
11 | O=C(NN1C(=O)c2ccc(N3CCN(c4ccnc5cc(Cl)ccc45)CC3)cc2C1=O)c1ccncc1 | 6 (≈ 3.08 µg/mL) | > 32.5 | < 3.71 | –
12 | O=C(NNC(=O)c1ccc2c(c1)C(=O)N(CCCNc1ccnc3cc(Cl)ccc13)C2=O)c1ccncc1 | 47.3 (≈ 25 µg/mL) | 2.5 | 3.92 | –
13 | O=C(NNC(=O)c1ccc2c(c1)C(=O)N(CCCCNc1ccnc3cc(Cl)ccc13)C2=O)c1ccncc1 | 23 (≈ 12.5 µg/mL) | 0.7 | 4.78 | –
14 | O=C(NNC(=O)c1ccc2c(c1)C(=O)N(CCNc1ccnc3cc(Cl)ccc13)C2=O)c1ccncc1 | 389 (≈ 200 µg/mL) | > 0.5 | < 3.71 | –
15 | O=C(NCCCCCCCCNc1ccnc2cc(Cl)ccc12)c1ccc2c(c1)C(=O)N(NC(=O)c1ccncc1)C2=O | 5.1 (≈ 3.06 µg/mL) | > 32.7 | < 3.78 | –
16 | O=C(NN1C(=O)c2ccc(C(=O)OCCCNc3ccnc4cc(Cl)ccc34)cc2C1=O)c1ccncc1 | 11.9 (≈ 6.31 µg/mL) | > 16 | < 3.71 | –
17 | O=C(NN1C(=O)c2c(F)c(F)c(F)c(F)c2C1=O)c1ccncc1 | – | – | – | MIC [8]: 3.4 µM (≈ 1.15 µg/mL)
18 | O=C(O)c1ccc2c(c1)C(=O)N(CCCCNc1ccnc3cc(Cl)ccc13)C2=O | 236 (≈ 100 µg/mL) | 0.16 | 4.40 | –
19 | O=C(NCCNc1ccnc2cc(Cl)ccc12)c1ccc2c(c1)C(=O)N(NC(=O)c1ccncc1)C2=O | 6 (≈ 3.09 µg/mL) | 10.6 | 4.19 | –
20 | NNC(=O)c1ccncc1 | 0.07 (≈ 0.0096 µg/mL) | – | – | –
21 | O=C(NNC(=O)c1ccc(N2C(=O)c3ccccc3C2=O)cc1)c1ccncc1 | 129 (≈ 50 µg/mL) | > 2 | < 3.59 | –
22 | O=C(NNC(=O)c1ccc2c(c1)C(=O)N(CCCCCCNc1ccnc3cc(Cl)ccc13)C2=O)c1ccncc1 | 21.9 (≈ 12.5 µg/mL) | 5.8 | 3.89 | –
23 | O=C(O)c1ccc2c(c1)C(=O)N(CCCNc1ccnc3cc(Cl)ccc13)C2=O | 489 (≈ 200 µg/mL) | 0.5 | 3.62 | –
24 | O=C(Cn1cc(CN2C(=O)c3ccccc3C2=O)nn1)Nc1ccc(Br)cc1 | – | – | – | MIC [9]: 28.4 µM (≈ 12.5 µg/mL)
25 | O=C(CN1C(=O)c2ccccc2C1=O)NNC(=O)c1ccncc1 | 308 (≈ 100 µg/mL) | > 1 | < 3.51 | –
26 | O=C(NCCCCNc1ccnc2cc(Cl)ccc12)c1ccc2c(c1)C(=O)N(NC(=O)c1ccncc1)C2=O | 23 (≈ 12.5 µg/mL) | 0.6 | 4.83 | –
27 | O=C(O)c1ccc2c(c1)C(=O)N(CCNc1ccnc3cc(Cl)ccc13)C2=O | > 506 | > 0.5 | < 3.60 | –
28 | O=C(NCCCCCCNc1ccnc2cc(Cl)ccc12)c1ccc2c(c1)C(=O)N(NC(=O)c1ccncc1)C2=O | 11 (≈ 6.28 µg/mL) | 3 | 4.48 | –
29 | O=C(CN1C(=O)c2ccc(F)cc2C1=O)NCCNc1ccnc2cc(Cl)ccc12 | – | – | – | pIC50 (Vero [1]): < 3.63; MIC [2]: 14.6 µM (≈ 6.23 µg/mL)
